Each molecule was assayed against T1, PPARγ (Homo sapiens, UniProt P37231) (assay: Crossed-curve PPAR transactivation test (PPARγ)). Settings: HeLN cells stably transfected with Gal-hPPARγ and luciferase reporter; Schild regression against reference agonist; n.a. means not active; read-out: PPARγ Kd app.
T1 sequence (P37231 238-505 limits assumed): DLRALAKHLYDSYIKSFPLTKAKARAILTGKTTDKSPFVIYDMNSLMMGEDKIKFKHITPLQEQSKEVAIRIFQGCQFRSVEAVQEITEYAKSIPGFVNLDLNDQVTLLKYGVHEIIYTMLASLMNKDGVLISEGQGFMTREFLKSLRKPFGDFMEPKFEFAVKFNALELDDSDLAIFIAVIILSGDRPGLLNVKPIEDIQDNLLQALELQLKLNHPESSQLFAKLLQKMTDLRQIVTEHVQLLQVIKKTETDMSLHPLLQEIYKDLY
Assay type: cell-based
Method: The activation of receptors with an agonist (activator) in HeLN cells leads to the expression of a reporter gene, luciferase, which, in the presence of a substrate, generates light. The modulation of the receptors is measured by quantifying the luminescence produced after incubating the cells in the presence of a reference agonist. The ligands displace the agonist from its site. The measurement of the activity is performed by quantifying the light produced. This measurement makes it possible to determine the modulatory activity of the compounds according to the invention by determining the constant that is the affinity of the molecule for the receptor. Since this value can fluctuate depending on the basal activity and the expression of the receptor, it is referred to as Kd apparent (KdApp in nM).
This is 88 measurement points for 1 product and 1 receptor. The remaining 8 wells are used for repeatability controls.
Measurements are also taken for total agonist controls with the same products.
The HeLN cell lines used are stable transfectants containing the plasmids ERE-βGlob-Luc-SV-Neo (reporter gene) and PPAR (α, δ, γ) Gal-hPPAR. These cells are inoculated into 96-well plates at a rate of 10 000 cells per well in 100 μl of DMEM medium without phenol red and supplemented with 10% of defatted calf serum. The plates are then incubated at 37° C. and 7% CO2 for 16 hours.
The various dilutions of the test products and of the reference ligand are added at a rate of 5 μl per well. The plates are then incubated for 18 hours at 37° C. and 7% CO2. The culture medium is removed by turning over and 100 μl of a 1:1 PBS/luciferine mixture are added to each well. After 5 minutes, the plates are read by the luminescence detector.
Work on `CCCc1nnc(C(Cc2ccc(-c3cccc(CN(C)C(=O)c4ccc5cc(OCOCCOC)ccc5c4)c3)cc2)OCC)o1` (stereo not drawn) [Example 1, N-{4′-[2-ethoxy-2-(5-propyl[1,3,4]oxadiazol-2-yl)ethyl]biphenyl-3-ylmethyl}-N-methyl-6-(2-methoxyethoxymethoxy)naphthalene-2-carboxylamide] yielded a Kd of 250 nM. With `CCCc1nnc(C(Cc2ccc(-c3cccc(CN(C)C(=O)c4ccc(Oc5ccccc5)cc4)c3)cc2)OCC)o1` (stereo not drawn) [Example 2, N-{4′-[2-ethoxy-2-(5-propyl[1,3,4]oxadiazol-2-yl)ethyl]biphenyl-3-ylmethyl}-N-methyl-4-phenoxybenzamide] the Kd was 1000 nM. In the case of `CCCc1nnc(C(Cc2ccc(-c3cccc(CN(C)C(=O)c4ccc5cc(C(=O)OC)ccc5c4)c3)cc2)OCC)o1` (stereo not drawn) [Example 7, methyl 6-({4′-[2-ethoxy-2-(5-propyl[1,3,4]oxadiazol-2-yl)ethyl]biphenyl-3-ylmethyl}methylcarbamoyl)naphthalene-2-carboxylate], the Kd is reported as 250 nM.
